{
  "source": "patent US5387602A",
  "about": "“1.5-diphenyl-3-(N-hydroxycarbamoyloxyalkyl)pyrazoles” (Ortho Pharmaceutical Corporation, priority 1993, dated 1995)",
  "key": {"[1]": {"system": "5-LO (LTB4) in dog whole blood", "test": "Procedure IV: ex vivo eicosanoid synthesis in dog whole blood after oral dosing, 5-LO", "conditions": "Canis lupus familiaris, read-out: % INHIB/HOURS 5-LO (Proc. IV); for inhibition at 1 mg/kg: 1 MPK; for inhibition at 5 mg/kg: 5 MPK", "method": "(§1) Ex Vivo eicosanoid synthesis in dog whole blood. Adult beagle or mongrel dogs (10-15 kg) of either sex were fasted overnight prior to the initiation of each experiment. The forelimb was clipped and swabbed with an alcohol prep (70% isopropanol). Blood was drawn by venipuncture into syringes containing lithium heparin (Starstead, Newton N.C.) immediately prior to administration of compound or vehicle and then at various intervals following dosing. The test compound was administered orally as a suspension in 0.5% methocel. At various times after dosing, blood samples were drawn and placed on an electric rocker platform to assure complete and continuous mixing. White blood cell (wbc) counts were performed using a Sysmex hematology analyzer. This was done in an effort to normalize the number of leukocytes to be stimulated with calcium ionophore. A 1.0 mL aliquot of whole blood was challenged with 50 μL of a 2.6×10^-5 M solution of calcium ionophore A23187 (Calbiochem, La Jolla, Calif.) prepared in DMSO and diluted in HBSS. After a 15 minute incubation at 37° C., the reaction was stopped by placing the samples in an ice bath (4° C.) for 5 minutes and then centrifuged at 11,000×g for 5 minutes to separate the plasma fraction from blood cells. The plasma fraction was removed, diluted in an appropriate buffer, and analyzed for the presence of LTB4 and prostaglandin F2a or TxB2 by standard RIA techniques.\n(§2) In the following tables, the superscripts indicate the number of experiments and, unless otherwise stated, the dose at which % inhibition is reported is 3 MPK."}, "[2]": {"system": "CO (prostaglandin F2a or TxB2) in dog whole blood", "test": "Procedure IV: ex vivo eicosanoid synthesis in dog whole blood after oral dosing, CO", "conditions": "Canis lupus familiaris, read-out: % INHIB/HOURS CO (Proc. IV); for inhibition at 1 mg/kg: 1 MPK; for inhibition at 5 mg/kg: 5 MPK", "method": "as §1, §2"}},
  "note": "Like-named read-outs stand apart in the source and are kept apart here.",
  "data": [
    {"smiles": "COc1ccc(-n2nc(COC(=O)N(O)C(C)C)c(Br)c2-c2ccc(Cl)cc2)cc1", "note": "[1-F]", "values": [
      {"measurement": "inhibition at 7.5 mg/kg", "setting": "[1]; 7.5 MPK, 6 hours", "result": 38, "unit": "%"},
      {"measurement": "inhibition at 7.5 mg/kg", "setting": "[2]; 7.5 MPK, 6 hours", "result": 82, "unit": "%"}
    ]},
    {"smiles": "COc1ccc(-n2nc(COC(=O)N(C)O)cc2-c2ccc(C)cc2)cc1", "note": "[1-K]", "values": [
      {"measurement": "inhibition at 3 mg/kg", "setting": "[1]; 3 MPK, 2 hours", "result": 21, "unit": "%"},
      {"measurement": "inhibition at 3 mg/kg", "setting": "[2]; 3 MPK, 2 hours", "result": 95, "unit": "%"}
    ]},
    {"smiles": "COc1ccc(-n2nc(COC(=O)N(O)C(C)C)cc2-c2ccc(C)cc2)cc1", "note": "[1-L]", "values": [
      {"measurement": "inhibition at 1 mg/kg", "setting": "[1]; 2 hours", "result": 22, "unit": "%"},
      {"measurement": "inhibition at 1 mg/kg", "setting": "[2]; 2 hours", "result": 68, "unit": "%"}
    ]},
    {"smiles": "COc1ccc(-n2nc(COC(=O)NO)c(Cl)c2-c2ccc(C)cc2)cc1", "note": "[1-P]", "values": [
      {"measurement": "inhibition at 5 mg/kg", "setting": "[1]; 2 hours", "result": 27, "unit": "%"},
      {"measurement": "inhibition at 5 mg/kg", "setting": "[2]; 2 hours", "result": 72, "unit": "%"}
    ]},
    {"smiles": "COc1ccc(-n2nc(COC(=O)N(O)C(C)C)c(Cl)c2-c2ccc(C)cc2)cc1", "note": "[1-R]", "values": [
      {"measurement": "inhibition at 1 mg/kg", "setting": "[1]; 2 hours", "result": 6, "unit": "%"},
      {"measurement": "inhibition at 1 mg/kg", "setting": "[2]; 2 hours", "result": 7, "unit": "%"}
    ]},
    {"smiles": "COc1ccc(-n2nc(CCOC(=O)N(C)O)cc2-c2ccc(Cl)cc2)cc1", "note": "[2-A]", "values": [
      {"measurement": "inhibition at 2.5 mg/kg", "setting": "[1]; 2.5 MPK, 6 hours", "result": 0, "unit": "%"},
      {"measurement": "inhibition at 2.5 mg/kg", "setting": "[2]; 2.5 MPK, 6 hours", "result": 32, "unit": "%"}
    ]},
    {"smiles": "COc1ccc(-n2nc(CCOC(=O)N(O)C(C)C)cc2-c2ccc(Cl)cc2)cc1", "note": "[2-B]", "values": [
      {"measurement": "inhibition at 5 mg/kg", "setting": "[1]; 2 hours", "result": 0, "unit": "%"},
      {"measurement": "inhibition at 5 mg/kg", "setting": "[2]; 2 hours", "result": 33, "unit": "%"}
    ]},
    {"smiles": "COc1ccc(-n2nc(CCOC(=O)N(O)C(C)C)c(Cl)c2-c2ccc(Cl)cc2)cc1", "note": "[2-D]", "values": [
      {"measurement": "inhibition at 5 mg/kg", "setting": "[1]; 2 hours", "result": 32, "unit": "%"},
      {"measurement": "inhibition at 5 mg/kg", "setting": "[2]; 2 hours", "result": 41, "unit": "%"}
    ]},
    {"smiles": "COc1ccc(-n2nc(CCOC(=O)N(C)O)c(Br)c2-c2ccc(Cl)cc2)cc1", "note": "[2-E]", "values": [
      {"measurement": "inhibition at 5 mg/kg", "setting": "[1]; 6 hours", "result": 57, "unit": "%"},
      {"measurement": "inhibition at 5 mg/kg", "setting": "[2]; 6 hours", "result": 62, "unit": "%"}
    ]},
    {"smiles": "COc1ccc(-n2nc(CCOC(=O)N(O)C(C)C)c(Br)c2-c2ccc(Cl)cc2)cc1", "note": "[2-F]", "values": [
      {"measurement": "inhibition at 5 mg/kg", "setting": "[1]; 24 hours", "result": 11, "unit": "%"},
      {"measurement": "inhibition at 5 mg/kg", "setting": "[2]; 24 hours", "result": 42, "unit": "%"}
    ]},
    {"smiles": "COc1ccc(-n2nc(CCOC(=O)N(C)O)c(Cl)c2-c2ccc(C)cc2)cc1", "note": "[2-I]", "values": [
      {"measurement": "inhibition at 5 mg/kg", "setting": "[1]; 6 hours", "result": 0, "unit": "%"},
      {"measurement": "inhibition at 5 mg/kg", "setting": "[2]; 6 hours", "result": 0, "unit": "%"}
    ]},
    {"smiles": "COc1ccc(-n2nc(CCOC(=O)N(O)C(C)C)c(Cl)c2-c2ccc(C)cc2)cc1", "note": "[2-J]", "values": [
      {"measurement": "inhibition at 5 mg/kg", "setting": "[1]; 4 hours", "result": 26, "unit": "%"},
      {"measurement": "inhibition at 5 mg/kg", "setting": "[2]; 4 hours", "result": 73, "unit": "%"}
    ]},
    {"smiles": "COc1ccc(-n2nc(CCCOC(=O)N(C)O)cc2-c2ccc(Cl)cc2)cc1", "note": "[3-B]", "values": [
      {"measurement": "inhibition at 5 mg/kg", "setting": "[1]; 6 hours", "result": 11, "unit": "%"},
      {"measurement": "inhibition at 5 mg/kg", "setting": "[2]; 6 hours", "result": 94, "unit": "%"}
    ]},
    {"smiles": "COc1ccc(-n2nc(CCCOC(=O)N(C)O)c(Cl)c2-c2ccc(Cl)cc2)cc1", "note": "[3-D]", "values": [
      {"measurement": "inhibition at 5 mg/kg", "setting": "[1]; 2 hours", "result": 1, "unit": "%"},
      {"measurement": "inhibition at 5 mg/kg", "setting": "[2]; 2 hours", "result": 93, "unit": "%"}
    ]},
    {"smiles": "COc1ccc(-n2nc(CCCOC(=O)N(O)C(C)C)c(Cl)c2-c2ccc(Cl)cc2)cc1", "note": "[3-E]", "values": [
      {"measurement": "inhibition at 5 mg/kg", "setting": "[1]; 24 hours", "result": 22, "unit": "%"},
      {"measurement": "inhibition at 5 mg/kg", "setting": "[2]; 2 hours", "result": 76, "unit": "%"}
    ]},
    {"smiles": "COc1ccc(-n2nc(CCCOC(=O)N(C)O)c(Br)c2-c2ccc(Cl)cc2)cc1", "note": "[3-F]", "values": [
      {"measurement": "inhibition at 5 mg/kg", "setting": "[1]; 2 hours", "result": 8, "unit": "%"},
      {"measurement": "inhibition at 5 mg/kg", "setting": "[2]; 2 hours", "result": 45, "unit": "%"}
    ]}
  ]
}
